This is an account of results in patent US9718790B2, “Triazine derivative and pharmaceutical composition having an analgesic activity comprising the same” (SHIONOGI & CO., LTD., priority 2010, dated 2017).

Each structure is given as a SMILES string.

For one assay, the target named is human P2X3 receptor (Homo sapiens (Human), UniProt P56373). Nature of the assay: Evaluation of human P2X3 receptor inhibitory activity (Fluo-3 calcium fluorescence, FDSS 3000, ATP stimulation).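 Note: stimulus was 50 nM ATP with fluorescence followed for 3 min, and the response per well was peak post-ATP fluorescence divided by the reading at measurement start.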 To be noted: C6BU-1 cells stably expressing human P2X3 receptor. Type of assay: cell-based.
Chain of human P2X3 receptor (P56373 whole entry): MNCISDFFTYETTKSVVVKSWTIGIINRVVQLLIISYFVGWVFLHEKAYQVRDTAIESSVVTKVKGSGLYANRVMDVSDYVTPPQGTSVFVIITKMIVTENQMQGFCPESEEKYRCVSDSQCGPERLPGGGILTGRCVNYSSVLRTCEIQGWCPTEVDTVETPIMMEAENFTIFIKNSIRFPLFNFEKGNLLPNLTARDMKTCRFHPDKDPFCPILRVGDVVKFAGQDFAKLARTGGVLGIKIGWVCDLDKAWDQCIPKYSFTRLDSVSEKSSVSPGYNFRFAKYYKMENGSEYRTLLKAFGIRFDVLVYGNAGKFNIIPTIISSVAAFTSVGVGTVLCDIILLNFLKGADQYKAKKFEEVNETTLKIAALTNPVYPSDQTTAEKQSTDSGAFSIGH
On to `COC(=O)[C@@H](C)[C@@H](C)n1c(=O)[nH]/c(=N\c2ccc(OC(C)C)cc2)n(Cc2ccc(C)cc2)c1=O` [Compound I-1310], for which the 50% inhibitory concentration (IC50) is 66 nM.
Still for that read-out and setting: the same measure for `COC(=O)[C@@H](C)Cn1c(=O)[nH]/c(=N\c2ccc(Br)c(OC)c2)n(Cc2ccc(C)cc2)c1=O` [Compound I-1195]: 221 nM; for `Cc1ccc(Cn2c(=O)n([C@H](C)[C@H](C)C(=O)O)c(=O)[nH]/c2=N\c2ccc(OCC3CC3)cc2)cc1` [Compound I-1341]: 36 nM; for `C[C@@H](Cn1c(=O)[nH]/c(=N\c2ccc3c(c2)CCC3)n(Cc2ccc(Cl)cc2)c1=O)C(=O)O` [Compound I-0772]: 477 nM.
For the molecule `CCOC(=O)CCCn1c(=O)[nH]/c(=N\c2ccc(O)cc2)n(Cc2ccc(C)cc2)c1=O` [Compound I-1239], the concentration for half-maximal inhibition (IC50) worked out at 732 nM.
Take `COC(=O)[C@@H](C)Cn1c(=O)[nH]/c(=N\c2cnc(OC3CCC3)c(Cl)c2)n(Cc2ccc(C)cc2)c1=O` [Compound I-1398]: the IC50 is 25 nM.
Still for that read-out and setting: then `COC(=O)[C@@H](C)Cn1c(=O)[nH]/c(=N\c2ccc3ncccc3c2)n(Cc2ccc(Cl)cc2)c1=O` [Compound I-1318], with 544 nM.

The assay is the same for the next values; noted with them: C6BU-1 cells stably expressing human P2X3 receptor, Fluo-3 fluorescence, FDSS 3000.
For the molecule `CCc1cc2cc(/N=c3\[nH]c(=O)n(C[C@H](C)C(=O)O)c(=O)n3Cc3ccc(Cl)cc3)ccc2o1` [Compound I-1766], the IC50 stood at 18 nM.
On the same count and under the same terms, the same measure for `CCc1nc2ccc(/N=c3\[nH]c(=O)n(CC(=O)OC)c(=O)n3Cc3ccc(Cl)cc3)cc2s1` [Compound I-1752]: 4 nM; for `Cc1nc2ccc(/N=c3\[nH]c(=O)n(CC(=O)O)c(=O)n3Cc3ccc(Cl)cc3)cc2s1` [Compound I-1610]: 251 nM; for `Cc1ccc(Cn2c(=O)n(C[C@H](C)C(=O)O)c(=O)[nH]/c2=N\c2ccc(OC3CCOCC3)nc2)cc1` [Compound I-1120]: 534 nM.
Still for that read-out and setting: then `O=C(NCCO)c1cc(Oc2ccc(/N=c3\[nH]c(=O)[nH]c(=O)n3Cc3ccc(Cl)cc3)cc2)ccn1` [Compound I-1897], with 24 nM.

The same assay, now with this note: human P2X3 receptor, Test Example 1.
Consider `Cn1c(=O)[nH]/c(=N\c2ccc(Oc3ccnc(C(=O)O)c3)c(F)c2)n(Cc2ccc(Cl)cc2)c1=O` [Compound I-2461], for which the IC50 was found to be 7 nM.
Consider `COC(=O)[C@@H](C)Cn1c(=O)[nH]/c(=N\c2ccc(OCC(C)C)c(C)c2)n(Cc2ccc(Cl)cc2)c1=O` [Compound I-0831], for which the concentration for half-maximal inhibition (IC50) amounted to 77 nM.
Still for that read-out and setting: the same measure for `COC(=O)CCn1c(=O)[nH]/c(=N\c2ccc(Oc3nc(C)ns3)cc2)n(Cc2ccc(Cl)cc2)c1=O` [Compound I-2651]: 2 nM; for `O=c1[nH]/c(=N\c2ccc(Oc3cccc(F)n3)cc2)n(Cc2ccc(Cl)cc2)c(=O)n1CC(CO)CO` [Compound I-2582]: 3 nM.
For the molecule `NC(=O)Cn1c(=O)[nH]/c(=N\c2ccc(Oc3ccon3)cc2)n(Cc2ccc(Cl)cc2)c1=O` [Compound I-2512], the 50% inhibitory concentration (IC50) was found to be 11 nM.
On the same count and under the same terms, then `CCn1c(=O)[nH]/c(=N\c2ccc(Oc3nc(C)c(C(=O)O)s3)cc2)n(C[C@H]2CC[C@H](C)CC2)c1=O` [Compound I-2346], with 4 nM; and `CCOC(=O)Cn1c(=O)[nH]/c(=N\c2ccc(Oc3cnsn3)cc2)n(Cc2ccc(Cl)cc2)c1=O` [Compound I-2629], with 6 nM; and `CCOC(=O)Cn1c(=O)[nH]/c(=N\c2ccc(Oc3ccnnc3)cc2)n(Cc2ccc(Cl)cc2)c1=O` [Compound I-2664], with 3 nM.
As for `O=C(Cn1c(=O)[nH]/c(=N\c2ccc(Oc3nccs3)cc2)n(Cc2ccc(Cl)cc2)c1=O)NCCO` [Compound I-2646], the IC50 was found to be 8 nM.
Still for that read-out and setting: then `O=c1[nH]/c(=N\c2ccc(Oc3cnsn3)cc2)n(Cc2ccc(Cl)cc2)c(=O)n1CCO` [Compound I-2477], with 15 nM; and `CCn1c(=O)[nH]/c(=N\c2ccc(Oc3cc(C(=O)O)sn3)cc2)n(C[C@H]2CC[C@H](C)CC2)c1=O` [Compound I-2349], with 4 nM; and `O=C(O)c1cc(Oc2ccc(/N=c3\[nH]c(=O)n(CC(F)F)c(=O)n3Cc3ccc(Cl)cc3)cc2)ccn1` [Compound I-2248], with 7 nM.

For orientation: IC50 means the concentration that inhibits the measured activity by half.
